Data set [1] in a line: Plasma carnitine and O-acetylcarnitine levels in longitudinal samples of autistic subjects versus controls (FIG. 4). The following applies: all ASD subjects taking acetyl-carnitine. It is filed as in vivo, human. An excerpt: FIG. 4 is a graph illustrating levels of carnitine and O-acetylcarnitine in longitudinal samples collected over the course of one year from individual subjects diagnosed with autism versus controls. Values are control normalized and expressed as mean+/−SEM, n=3 for each child, n=30 for controls, *, p<0.05 vs. control;
(§1) Sample Collection. Three plasma samples were collected from 15 clinically diagnosed ASD subjects and 12 non-ASD controls over a 12 month period (six month interval between samplings). Four subjects were treated with carnitine (A09, A11, A13, A15). Table 1 outlines the clinical characteristics of the subjects studied. Social cognition scores were determined using methods known in the art.
(§2) Acetyl-carnitine is not approved nor has it been proven to be effective in ASD. To illustrate the utility of a method of monitoring ASD therapy as disclosed herein, the diagnostic ASD biomarkers described above were quantified in subjects taking acetyl-carnitine supplements. FIG. 4 illustrates the carnitine and acetyl carnitine levels in all of the subjects. […] All of the subjects taking acetyl-carnitine had elevated levels of both carnitine and acetyl-carnitine.

The test system of another data set is autism biomarkers. The experiment in a line: Monitoring the biochemical efficacy of carnitine supplementation on autism biomarkers in plasma (FIG. 5). The format is in vivo, human.
Source text: FIG. 5 is a graph illustrating levels of key DHA and AA containing PlsEtn and VLCFA containing PtdEtn in longitudinal samples collected over the course of one year from autistic subjects taking carnitine supplements [n=12 (4×3)] vs. subjects not taking carnitine supplements [n=33 (11×3)] and vs. controls [n=30 (10×3)]. Values control-normalized and expressed as mean+/−SEM of the ratio to PtdEtn 16:0/18:0, *, p<0.05 vs. control, #, p<0.05 vs. autism, no carnitine; and
as §1
LC-MS/MS flow injection analyses. Analyses were performed using a linear ion trap mass spectrometer (4000 Q TRAP, Applied Biosystems) coupled with an Agilent 1100 LC system. Sample was prepared by adding 15 μL of internal standard (5 μg/mL of (24-^13C)-Cholic Acid (Cambridge Isotope Laboratories, Andover, Mass.) in methanol) to 120 μL ethyl acetate fraction of each sample. 100 μl of sample was injected by flow injection analysis (FIA), and monitored under negative APCI mode. The method was based on multiple reaction monitoring (MRM) of one parent/fragment transition for each metabolite and (24-^13C)-Cholic Acid. Each transition was scanned for 70 ms. 10% EtOAc in MeOH at a flow rate of 360 μl/min was used as the mobile phase. The source parameters were set as follows: CUR: 10.0, CAD: 8, NC: −4.0, TEM: 400, GS1: 30, GS2: 50, interface heater on. The compound parameters were set as follows: DP: −120.0, EP: −10, NC: −4.0, CE: −40, CXP: −15. A standard curve was generated for all analytes to verify instrument linearity by serial dilution of a healthy normal serum extract with constant concentration of (24-^13C)-Cholic Acid. All samples were analyzed in a randomized blinded manner and were bracketed by known serum standard dilutions. All standard curves had r^2 values >0.98.
as §2
Comparison of the plasma levels of the eight most descriptive metabolites between the carnitine+/−autistic subjects and controls, determined that the effect of carnitine on the autism biomarkers was striking (FIG. 5). […] However, the rate of elongation and desaturation of mono- and di-unsaturated fatty acid precursors appear to be unaffected and a compensatory elevation in AA appears to occur.

[2] abbreviates: autistic subjects taking carnitine vs not taking and vs controls.

Consider `C[N+](C)(C)CC(O)CC(=O)[O-]` (centres unmarked) [carnitine], for which, in data set [1], the “Plasma levels in subjects taking acetyl-carnitine” value is recorded as “elevated”. In the data set on autism biomarkers, the “Levels of AA-PtdEtn (20:4) in subjects taking carnitine” value is given as “significantly elevated”. For the same molecule, in the data set on autism biomarkers (setting [2]), the “Effect on DHA-PlsEtn” value is on record as “Complete normalization”, the “Effect on DHA-PtdEtn” value is given as “Complete normalization”, the “Effect on saturated VLCFA (28:0)” value is listed as “Complete normalization” and the “Effect on the DHA precursor (24:6)” value is reported as “Complete normalization”. In the data set on autism biomarkers (carnitine supplementation), the “Effect on 26:3 PdtEtn” value is reported as “no significant effect” and the “Effect on 28:1 PdtEtn” value is on record as “no significant effect”.
